Structures can show the parent of a compound that is named as a salt.
How the values were obtained:
[1] = molecular target: PI3Kδ (p110δ/p85α) Recombinant Human Protein (Homo sapiens (Human), UniProt O00329); assay: PI3Kδ Scintillation Proximity Assay; type: biochemical; settings: 20 μM PIP2, 2 μM ATP, 3.4 nM PI3Kδ, 120 min
From the text: Example C. PI3Kδ Scintillation Proximity Assay
(§1) [γ-^33P]ATP (10 mCi/mL) and Wheat Germ Agglutinin (WGA) YSi SPA Scintillation Beads was purchased from Perkin Elmer (Waltham, Mass.). Lipid kinase substrate, D-myo-Phosphatidylinositol 4,5-bisphosphate (PtdInS(4,5)P2)D (+)-sn-1,2-di-O-octanoylglyceryl, 3-O-phospho linked (PIP2), CAS 204858-53-7, was purchased from Echelon Biosciences (Salt Lake City, Utah). PI3Kδ (p110δ/p85α) Recombinant Human Protein was purchased from Eurofins (St Charles, Mo.). ATP, MgCl2, DTT, EDTA, MOPS and CHAPS were purchased from Sigma Aldrich (St. Louis, Mo.).
(§2) The kinase reaction was conducted in polystyrene 384-well Greiner Bio-one white plate from Thermo Fisher Scientific in a final volume of 25 μL. Inhibitors were first diluted serially in DMSO and added to the plate wells before the addition of other reaction components. The final concentration of DMSO in the assay was 2%. The PI3Kδ assay was carried out at room temperature in 20 mM MOPS, pH 6.7, 10 mM MgCl2, 5 mM DTT and CHAPS 0.03%. Reactions were initiated by the addition of ATP, the final reaction mixture consisted of 20 μM PIP2, 2 μM ATP, 0.5 μCi [γ-^33P]ATP, 3.4 nM PI3Kδ. Reactions were incubated for 120 min and terminated by the addition of 40 μL SPA beads suspended in quench buffer: 163 mM potassium phosphate pH 7.8, 20% glycerol, 25 mM EDTA. The final concentration of SPA beads is 1.0 mg/mL. After the plate sealing, plates were shaken overnight at room temperature and centrifuged at 1500 rpm for 10 min, the radioactivity of the product was determined by scintillation counting on Topcount (PerkinElmer). IC50 determination was performed by fitting the curve of percent of the solvent control activity versus the log of the inhibitor concentration using the GraphPad Prism 6.0 software.

[2] = molecular target: PI3Kγ (p110γ) Recombinant Human Protein (Homo sapiens (Human), UniProt P48736); assay: PI3K-γ Scintillation Proximity Assay; type: biochemical; settings: 20 μM PIP2, 2 μM ATP, 13 nM PI3Kγ, 120 min
From the text: Example B. PI3K-γ Scintillation Proximity Assay
as §1, with “PI3Kγ (p110γ)” for “PI3Kδ (p110δ/p85α)”, “Life technology (Grand Island, N.Y.).” for “Eurofins (St Charles, Mo.).”
as §2, with “PI3Kγ” for “PI3Kδ”, “[γ-^33p]ATP, 13” for “[γ-^33P]ATP, 3.4”, “PI3Kγ.” for “PI3Kδ.”

[3] = system: Phosphorylated Ribosomal Protein S6 (RPS6) in THP-1 cells; assay: THP-1 RPS6 ELISA Assay; type: cell-based; settings: Homo sapiens, 2 hours compound, 10 nM MCP-1 for 15 minutes, Phospho-RPS6 ELISA, read-out: PI3Kγ_THP1_RPS6_ELISA IC50
Method: Example A. THP-1 RPS6 ELISA Assay To measure the Phosphorylated Ribosomal Protein S6 (RPS6) in cell lysates, THP-1 cells (Human Acute Monocytic Leukemia) are purchased from ATCC (Manassas, Va.) and maintained in RPMI with 10% FBS (Gibco/Life Technologies, Carlsbad, Calif.). For the assay, THP-1 cells are serum starved overnight in RPMI, then plated in RPMI (2×10^5 cells/well in 90 μL) into 96-well flat-bottom tissue culture treated plates (Corning, Corning, N.Y.), in the presence or absence of a concentration range of test compounds. Covered plates are incubated for 2 hours at 37° C., 5% CO2 then treated with or without 10 nM MCP-1 (MYBioSource, San Diego, Calif.) for 15 minutes at 37° C., 5% CO2. Plates are centrifuged at 1600 RPM and supernatants are removed. Cells are lysed in Lysis Buffer (Cell Signaling, Danvers, Mass.) with Protease Inhibitor (Calbiochem/EMD, Germany), PMSF (Sigma, St Louis Mo.), HALTS (Thermo Fisher, Rockford, Ill.) for 30 min on wet ice. Cell lysates are frozen at −80° C. before testing. The lysates are tested in the Human/Mouse/Rat Phospho-RPS6 ELISA (R&D Systems, Inc. Minn, Minn.). The plate is measured using a microplate reader (SpectraMax M5-Molecular Devices, LLC Sunnyvale, Calif.) set to 450 nm with a wavelength correction of 540. IC50 determination is performed by fitting the curve of inhibitor percent inhibition versus the log of the inhibitor concentration using the GraphPad Prism 5.0 software.

PI3Kγ (p110γ) Recombinant Human Protein, sequence (P48736 whole entry): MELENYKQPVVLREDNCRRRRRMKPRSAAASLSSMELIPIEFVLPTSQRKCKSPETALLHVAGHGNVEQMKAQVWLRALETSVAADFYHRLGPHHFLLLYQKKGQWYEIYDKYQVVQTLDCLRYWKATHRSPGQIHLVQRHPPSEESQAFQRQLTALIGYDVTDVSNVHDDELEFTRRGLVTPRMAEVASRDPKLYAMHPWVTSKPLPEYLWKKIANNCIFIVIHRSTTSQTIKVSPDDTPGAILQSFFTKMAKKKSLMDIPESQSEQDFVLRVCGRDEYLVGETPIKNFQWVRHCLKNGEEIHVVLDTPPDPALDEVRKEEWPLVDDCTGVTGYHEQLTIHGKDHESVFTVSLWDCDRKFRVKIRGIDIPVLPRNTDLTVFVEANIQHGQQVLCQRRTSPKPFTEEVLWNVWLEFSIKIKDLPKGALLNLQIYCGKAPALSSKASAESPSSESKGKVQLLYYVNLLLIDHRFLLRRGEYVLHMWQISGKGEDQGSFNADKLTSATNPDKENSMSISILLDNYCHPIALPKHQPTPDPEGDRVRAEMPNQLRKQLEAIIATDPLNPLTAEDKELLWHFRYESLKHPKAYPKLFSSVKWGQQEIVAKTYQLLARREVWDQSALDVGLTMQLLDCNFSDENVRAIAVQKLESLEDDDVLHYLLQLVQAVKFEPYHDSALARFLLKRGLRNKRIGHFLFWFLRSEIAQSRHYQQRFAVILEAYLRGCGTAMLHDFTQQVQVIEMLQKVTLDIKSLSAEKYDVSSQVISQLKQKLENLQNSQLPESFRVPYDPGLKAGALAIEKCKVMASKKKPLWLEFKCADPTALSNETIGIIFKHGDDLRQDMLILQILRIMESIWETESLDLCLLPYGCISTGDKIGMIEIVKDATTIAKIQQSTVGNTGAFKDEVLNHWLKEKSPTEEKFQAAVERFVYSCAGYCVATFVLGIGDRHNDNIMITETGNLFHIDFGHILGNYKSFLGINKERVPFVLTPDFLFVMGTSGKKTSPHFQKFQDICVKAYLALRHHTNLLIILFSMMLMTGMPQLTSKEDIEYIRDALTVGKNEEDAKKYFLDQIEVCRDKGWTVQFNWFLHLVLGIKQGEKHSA
PI3Kδ (p110δ/p85α) Recombinant Human Protein, sequence (O00329 whole entry): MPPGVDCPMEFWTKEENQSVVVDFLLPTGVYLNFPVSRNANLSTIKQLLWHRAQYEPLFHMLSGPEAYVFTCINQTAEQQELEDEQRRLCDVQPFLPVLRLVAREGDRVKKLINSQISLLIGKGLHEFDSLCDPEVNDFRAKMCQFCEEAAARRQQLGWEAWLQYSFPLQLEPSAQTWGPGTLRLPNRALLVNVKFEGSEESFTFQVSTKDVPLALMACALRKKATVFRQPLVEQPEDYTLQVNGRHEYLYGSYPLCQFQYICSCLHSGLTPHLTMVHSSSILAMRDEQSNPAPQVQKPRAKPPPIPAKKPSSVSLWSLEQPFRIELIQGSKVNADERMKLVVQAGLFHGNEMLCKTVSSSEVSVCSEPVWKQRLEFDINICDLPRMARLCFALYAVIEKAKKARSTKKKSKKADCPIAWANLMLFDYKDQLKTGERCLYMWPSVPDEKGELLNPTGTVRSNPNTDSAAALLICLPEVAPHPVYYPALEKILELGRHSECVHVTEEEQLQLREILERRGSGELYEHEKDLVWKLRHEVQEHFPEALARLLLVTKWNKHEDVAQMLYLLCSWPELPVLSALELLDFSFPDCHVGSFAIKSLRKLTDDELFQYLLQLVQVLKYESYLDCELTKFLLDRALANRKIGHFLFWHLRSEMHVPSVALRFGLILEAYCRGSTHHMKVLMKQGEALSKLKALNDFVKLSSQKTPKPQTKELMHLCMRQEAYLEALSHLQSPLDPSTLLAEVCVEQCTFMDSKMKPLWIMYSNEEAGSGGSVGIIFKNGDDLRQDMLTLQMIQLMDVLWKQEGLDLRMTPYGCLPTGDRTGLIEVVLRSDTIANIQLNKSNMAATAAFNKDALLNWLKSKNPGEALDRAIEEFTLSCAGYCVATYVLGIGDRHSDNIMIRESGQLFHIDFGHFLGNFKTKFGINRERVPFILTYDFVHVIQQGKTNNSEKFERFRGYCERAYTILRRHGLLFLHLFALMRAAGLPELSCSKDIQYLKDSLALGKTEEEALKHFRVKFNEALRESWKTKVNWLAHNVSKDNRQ
PI3Kδ (p110δ/p85α) Recombinant Human Protein, sequence (P27986 whole entry partner): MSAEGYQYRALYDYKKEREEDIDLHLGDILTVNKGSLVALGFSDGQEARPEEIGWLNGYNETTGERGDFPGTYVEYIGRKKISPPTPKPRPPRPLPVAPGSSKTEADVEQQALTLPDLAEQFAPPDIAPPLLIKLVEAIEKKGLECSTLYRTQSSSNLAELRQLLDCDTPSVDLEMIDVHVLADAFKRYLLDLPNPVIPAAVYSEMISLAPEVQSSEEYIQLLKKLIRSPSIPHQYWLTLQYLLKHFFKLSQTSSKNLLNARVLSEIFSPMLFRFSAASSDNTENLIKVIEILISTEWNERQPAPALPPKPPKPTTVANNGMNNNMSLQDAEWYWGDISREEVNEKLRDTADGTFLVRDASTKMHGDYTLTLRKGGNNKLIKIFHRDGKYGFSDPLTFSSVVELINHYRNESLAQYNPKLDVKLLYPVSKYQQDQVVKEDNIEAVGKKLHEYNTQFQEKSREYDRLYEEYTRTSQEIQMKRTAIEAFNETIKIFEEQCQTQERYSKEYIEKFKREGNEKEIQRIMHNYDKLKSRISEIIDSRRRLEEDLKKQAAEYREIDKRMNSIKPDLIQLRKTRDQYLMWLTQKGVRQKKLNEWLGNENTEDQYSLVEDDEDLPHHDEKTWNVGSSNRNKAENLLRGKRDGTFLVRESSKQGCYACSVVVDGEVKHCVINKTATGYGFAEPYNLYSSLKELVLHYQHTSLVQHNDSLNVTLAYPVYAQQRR

## CC(O)c1cc(-c2cnc3c(N)ncnn23)cc2c1C(=O)N([C@@H](C)C1CC1)C2 (mixture of isomers) [Example 16, 5-(4-Aminoimidazo[2,1-f][1,2,4]triazin-7-yl)-2-((S)-1-cyclopropylethyl)-7-(1-hydroxyethyl)isoindolin-1-one trifluoroacetate salt]
[1]
  IC50: ≤ 500 nM
[2]
  IC50: ≤ 100 nM
[3]
  IC50: ≥ 1000 nM

## C[C@@H](C1CC1)N1Cc2cc(-c3cnc4c(N)nc(C(=O)NC5CCOCC5O)cn34)ccc2C1=O (mixture of isomers) [Example 32, 8-Amino-3-(2-((S)-1-cyclopropylethyl)-1-oxoisoindolin-5-yl)-N-(3-hydroxytetrahydro-2H-pyran-4-yl)imidazo[1,2-a]pyrazine-6-carboxamide, trifluoroacetate salt]
[1]
  IC50: ≥ 2000 nM
[2]
  IC50: ≤ 100 nM
[3]
  IC50: ≥ 1000 nM

## C[C@@H](C1CC1)N1Cc2cc(-c3cnc4c(N)ncnn34)cc(C(O)(CO)C(F)(F)F)c2C1=O (mixture of isomers) [Example 39, 5-(4-Aminoimidazo[2,1-f][1,2,4]triazin-7-yl)-2-((S)-1-cyclopropylethyl)-7-(1,1,1-trifluoro-2,3-dihydroxypropan-2-yl)isoindolin-1-one, trifluoroacetate salt]
[1]
  IC50: < 2000 nM
[2]
  IC50: ≤ 100 nM
[3]
  IC50: ≥ 1000 nM

## C[C@@H](C1CC1)N1Cc2cc(-c3cnc4c(N)nc(C(F)(F)F)cn34)cc(C(O)(CO)C(F)(F)F)c2C1=O (mixture of isomers) [Example 40, 5-(8-Amino-6-(trifluoromethyl)imidazo[1,2-a]pyrazin-3-yl)-2-((S)-1-cyclopropylethyl)-7-(1,1,1-trifluoro-2,3-dihydroxypropan-2-yl)isoindolin-1-one, trifluoroacetate salt]
[1]
  IC50: < 2000 nM
[2]
  IC50: ≤ 100 nM
[3]
  IC50: ≥ 1000 nM

## CC(c1ccccc1)N1Cc2cc(-c3cnc4c(N)ncnn34)ccc2C1=O (racemic) [Example 12, 5-(4-Aminoimidazo[2,1-f][1,2,4]triazin-7-yl)-2-(1-phenylethyl)isoindolin-1-one, trifluoroacetate salt]
[1]
  IC50: ≤ 500 nM
[2]
  IC50: ≤ 100 nM
[3]
  IC50: ≥ 1000 nM

## Cc1cc(-c2cnc3c(N)ncnn23)cc2cn(C(C)C3CC3)nc12 (racemic) [Example 18, 7-(2-(1-Cyclopropylethyl)-7-methyl-2H-indazol-5-yl)imidazo[2,1-f][1,2,4]triazin-4-amine trifluoroacetate salt]
[1]
  IC50: ≥ 2000 nM
[2]
  IC50: ≤ 100 nM
[3]
  IC50: ≥ 1000 nM

## CC(C)NC(=O)c1cn2c(-c3cc4c(c(S(C)(=O)=O)c3)C(=O)N([C@@H](C)C3CC3)C4)cnc2c(N)n1 (single isomer, unassigned) [Example 28, trifluoroacetate salt]
[1]
  IC50: ≤ 500 nM
[2]
  IC50: ≤ 100 nM
[3]
  IC50: ≤ 500 nM

## C[C@@H](C1CC1)N1Cc2cc(-c3cnc4c(N)nc(C(=O)NC56CC(C5)C6)cn34)cc(S(C)(=O)=O)c2C1=O (single isomer, unassigned) [Example 29b, trifluoroacetate salt]
[1]
  IC50: ≤ 500 nM
[2]
  IC50: ≤ 100 nM
[3]
  IC50: < 1000 nM

## Cc1ncc(-c2cn3c(-c4cc5c(c(S(C)(=O)=O)c4)C(=O)N([C@@H](C)C4CC4)C5)cnc3c(N)n2)o1 (single isomer, unassigned) [Example 33, trifluoroacetate salt]
[1]
  IC50: ≤ 100 nM
[2]
  IC50: ≤ 100 nM
[3]
  IC50: ≤ 500 nM

## C[C@@H](C1CC1)N1Cc2cc(-c3cnc4c(N)nc(C(F)(F)F)cn34)cc(Cl)c2C1=O [Example 1, (S)-5-(8-Amino-6-(trifluoromethyl)imidazo[1,2-a]pyrazin-3-yl)-7-chloro-2-(1-cyclopropylethyl)isoindolin-1-one]
[1]
  IC50: < 2000 nM
[2]
  IC50: ≤ 100 nM
[3]
  IC50: ≥ 1000 nM

## CSc1cc(-c2cnc3c(N)nc(C(F)(F)F)cn23)cc2c1C(=O)N([C@@H](C)C1CC1)C2 [Example 2, (S)-5-(8-Amino-6-(trifluoromethyl)imidazo[1,2-a]pyrazin-3-yl)-2-(1-cyclopropylethyl)-7-(methylthio)isoindolin-1-one]
[1]
  IC50: ≤ 500 nM
[2]
  IC50: ≤ 100 nM
[3]
  IC50: ≥ 1000 nM

## C[C@@H](C1CC1)N1Cc2cc(-c3cnc4c(N)nc(C(F)(F)F)cn34)cc(S(C)(=O)=O)c2C1=O [Example 3, (S)-5-(8-Amino-6-(trifluoromethyl)imidazo[1,2-a]pyrazin-3-yl)-2-(1-cyclopropylethyl)-7-(methylsulfonyl)isoindolin-1-one]
[1]
  IC50: < 2000 nM
[2]
  IC50: ≤ 100 nM
[3]
  IC50: ≥ 1000 nM

## C[C@@H](C1CC1)N1Cc2cc(-c3cnc4c(N)nc(C(F)(F)F)cn34)ccc2C1=O [Example 5, (S)-5-(8-Amino-6-(trifluoromethyl)imidazo[1,2-a]pyrazin-3-yl)-2-(1-cyclopropylethyl)isoindolin-1-one]
[1]
  IC50: ≥ 2000 nM
[2]
  IC50: ≤ 100 nM
[3]
  IC50: ≥ 1000 nM

## C[C@@H](C1CC1)N1Cc2cc(-c3cnc4c(N)ncnn34)ccc2C1=O [Example 6, (S)-5-(4-Aminoimidazo[2,1-f][1,2,4]triazin-7-yl)-2-(1-cyclopropylethyl)isoindolin-1-one]
[1]
  IC50: ≥ 2000 nM
[2]
  IC50: ≤ 100 nM
[3]
  IC50: ≥ 1000 nM

## C[C@@H](C1CC1)N1Cc2cc(-c3cnc4c(N)ncnn34)cc(Cl)c2C1=O [Example 7, (S)-5-(4-Aminoimidazo[2,1-f][1,2,4]triazin-7-yl)-7-chloro-2-(1-cyclopropylethyl)isoindolin-1-one]
[1]
  IC50: ≤ 500 nM
[2]
  IC50: ≤ 100 nM
[3]
  IC50: ≥ 1000 nM

## C[C@@H](C1CC1)N1Cc2cc(-c3cnc4c(N)ncnn34)cc(S(C)(=O)=O)c2C1=O [Example 8, (S)-5-(4-Aminoimidazo[2,1-f][1,2,4]triazin-7-yl)-2-(1-cyclopropylethyl)-7-(methylsulfonyl)isoindolin-1-one]
[1]
  IC50: ≤ 500 nM
[2]
  IC50: ≤ 100 nM
[3]
  IC50: < 1000 nM

## CC(C)N1Cc2cc(-c3cnc4c(N)nc(C(F)(F)F)cn34)ccc2C1=O [Example 13, 5-(8-Amino-6-(trifluoromethyl)imidazo[l,2-a]pyrazin-3-yl)-2-isopropylisoindolin-1-one trifluoroacetate salt]
[1]
  IC50: ≥ 2000 nM
[2]
  IC50: ≤ 100 nM
[3]
  IC50: ≥ 1000 nM

Reference: US11078204B2, “Heterocyclic derivatives as PI3K inhibitors” (Incyte Corporation, priority 2018, dated 2021)
